Values after ≈ are worked out from the molar mass of the structure shown. Active and inactive are the calls of the source. The calls are words filed in the database; no cut-off is given here.
How the values were obtained:
[1] = 1-Octanol/PBS buffer distribution coefficient, log D of the compound at 1 uM measured after 24 hrs at pH 7.4 by shake flask based HPLC-ES-MS/MS analysis; assay type: physicochemical
Acetylcholinesterase [2] = target: T1, Acetylcholinesterase (Homo sapiens, UniProt P22303)
Description: Inhibition of human recombinant AChE by Ellman's spectrophotometric assay

HepG2 [3] = assay: Cytotoxicity against human HepG2 cells assessed as reduction in cell viability at 1 to 100 uM incubated for 4 hrs by CellTiter-Glo luminescence assay; assay type: toxicity, cell-based; conditions: hepg2, 4 h, dose 1-100 µM
SH-SY5Y [4] = assay: Cytotoxicity against human SH-SY5Y cells assessed as reduction in cell viability at 1 to 100 uM incubated for 4 hrs by CellTiter-Glo luminescence assay; assay type: toxicity, cell-based; conditions: dose 1-100 µM
[5] = Kinetic aqueous solubility of the compound in PBS incubated for 2 hrs under mild shaking at pH 7.4 by UV- vis spectrophotometric analysis; assay type: physicochemical; conditions: read-out: Kinetic_solubility
[6] = Intrinsic clearance in mouse liver microsomes at 0.5 uM incubated upto 30 mins in presence of NADPH measured per mg protein by LC/MS/MS analysis; assay type: ADME, Microsome; conditions: read-out: CLH
[7] = Chromatographic hydrophobicity index of the compound in ammonium acetate buffer at pH 7.4 by RP-HPLC analysis; assay type: physicochemical
[8] = Microsomal stability in mouse liver microsomes assessed as half life at 0.5 uM incubated upto 30 mins in presence of NADPH by LC/MS/MS analysis; assay type: ADME, Microsome
[9] = Effective permeability of the compound in PBS buffer at pH 7.4 by PAMPA-BBB assay; assay type: ADME; conditions: read-out: Peff
SH-SY5Y [10] = assay: Neuroprotection against Amyloid beta-induced cytotoxicity in human SH-SY5Y cells assessed as increase in cell viability at 0.1 to 1 uM co-incubated with Amyloid beta for 24 hrs by MTT assay; assay type: functional, cell-based; conditions: dose 0.1-1 µM
[11] = target: T2, Amine oxidase [flavin-containing] B (Homo sapiens, UniProt P27338)
T2 sequence (P27338 whole entry): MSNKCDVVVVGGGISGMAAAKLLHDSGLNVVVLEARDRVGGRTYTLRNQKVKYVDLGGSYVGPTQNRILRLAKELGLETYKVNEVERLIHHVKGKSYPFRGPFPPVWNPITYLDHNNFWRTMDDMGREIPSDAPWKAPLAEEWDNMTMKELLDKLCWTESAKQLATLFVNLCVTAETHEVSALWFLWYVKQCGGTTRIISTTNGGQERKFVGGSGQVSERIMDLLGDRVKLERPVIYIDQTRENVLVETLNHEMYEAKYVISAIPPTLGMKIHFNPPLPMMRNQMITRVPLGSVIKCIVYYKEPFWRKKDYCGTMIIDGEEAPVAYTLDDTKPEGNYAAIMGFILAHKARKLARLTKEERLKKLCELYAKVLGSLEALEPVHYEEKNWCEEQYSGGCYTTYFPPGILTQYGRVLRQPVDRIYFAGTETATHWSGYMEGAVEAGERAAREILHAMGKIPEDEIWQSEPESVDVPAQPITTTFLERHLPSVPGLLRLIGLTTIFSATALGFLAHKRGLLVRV
Description: Inhibition of human recombinant MAO-B expressed in supersomes assessed as inhibition of 4-hydroxyquinoline formation using kynuramine as substrate by spectrofluorimetric analysis

SH-SY5Y [12] = assay: Neuroprotective activity against NMDA -induced cytotoxicity in human SH-SY5Y cells assessed as increase in cell viability at 0.1 to 5 uM co-incubated with NMDA for 24 hrs by MTT assay; assay type: functional, cell-based; conditions: dose 0.1-5 µM
SH-SY5Y [13] = assay: Cytotoxicity against human SH-SY5Y cells assessed as reduction in cell viability at 100 uM incubated for 4 hrs by CellTiter-Glo luminescence assay; assay type: toxicity, cell-based
Homo sapiens = species on record: Homo sapiens; assay: Selectivity for human recombinant MAO-B expressed in supersomes over human recombinant MAO-A expressed in supersomes
Cytochrome P450 3A4 = Cytochrome P450 3A4 (Homo sapiens, UniProt P08684); assay: Inhibition of human recombinant CYP3A4 expressed in baculosomes by fluorescent homogenous assay; assay type: ADME
MAO-A = target: T3, MAO-A (Homo sapiens, UniProt P21397); assay: in vitro; conditions: recombinant MAO-A expressed in supersomes, probe kynuramine
T3 sequence (P21397 whole entry): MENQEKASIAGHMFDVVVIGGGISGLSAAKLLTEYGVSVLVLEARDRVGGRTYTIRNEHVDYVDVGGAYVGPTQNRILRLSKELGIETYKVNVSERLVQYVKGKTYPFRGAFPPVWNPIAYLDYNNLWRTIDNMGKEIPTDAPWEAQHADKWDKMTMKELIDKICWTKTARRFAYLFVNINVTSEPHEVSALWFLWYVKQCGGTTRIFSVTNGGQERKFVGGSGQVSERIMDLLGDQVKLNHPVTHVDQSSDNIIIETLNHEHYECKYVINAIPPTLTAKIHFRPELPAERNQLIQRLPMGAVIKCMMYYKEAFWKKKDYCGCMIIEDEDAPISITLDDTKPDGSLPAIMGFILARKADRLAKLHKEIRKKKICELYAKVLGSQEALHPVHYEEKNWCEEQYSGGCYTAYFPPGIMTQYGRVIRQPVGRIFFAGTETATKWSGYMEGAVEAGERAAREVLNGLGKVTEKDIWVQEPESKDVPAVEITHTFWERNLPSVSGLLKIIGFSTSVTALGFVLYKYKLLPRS

[14] = target: T2, Amine oxidase [flavin-containing] B; assay: Inhibition of human recombinant MAO-B expressed in supersomes assessed as inhibition of 4-hydroxyquinoline formation using kynuramine as substrate by spectrophotometric method
Acetylcholinesterase [15] = target: T1, Acetylcholinesterase; assay: Mixed type inhibition of human AChE by Lineweaver-Burk plot analysis
Albumin = Albumin (Homo sapiens, UniProt P02768); assay: Binding affinity to human serum albumin assessed as dissociation […] constant by surface plasmon resonance assay; assay type: ADME, cell-free
HepG2 [16] = assay: Cytotoxicity against human HepG2 cells assessed as reduction in cell viability at 100 uM incubated for 4 hrs by CellTiter-Glo luminescence assay; assay type: toxicity, cell-based; conditions: hepg2, 4 h
SH-SY5Y [17] = assay: Neuroprotective activity against H2O2-induced neurotoxicity in human SH-SY5Y cells assessed as increase in cell viability at 1 to 5 uM co-incubated with H2O2 for 24 hrs by MTT assay; assay type: functional, cell-based; conditions: dose 1-5 µM
[18] = Apparent permeability across basolateral to apical side in human Caco-2 cells at 10 uM incubated for 60 mins by HPLC-MS/MS method; assay type: ADME, cell-based
[19] = Intrinsic clearance in human liver microsomes at 0.5 uM incubated upto 60 mins in presence of NADPH measured per mg protein by LC/MS/MS analysis; assay type: ADME, Microsome; conditions: read-out: CLH
[20] = Apparent permeability across apical to basolateral side in human Caco-2 cells at 10 uM incubated for 60 mins by HPLC-MS/MS method; assay type: ADME, cell-based
[21] = target: T2, Amine oxidase [flavin-containing] B; assay: Competitive inhibition of human recombinant MAO-B expressed in supersomes using kynuramine as substrate by Lineweaver-Burk plot analysis
[22] = Microsomal stability in human liver microsomes assessed as half life at 0.5 uM incubated upto 60 mins in presence of NADPH by LC/MS/MS analysis; assay type: ADME, Microsome
[23] = Efflux ratio of apparent permeability across basolateral to apical side over apical to basolateral side in human Caco-2 cells; assay type: ADME, cell-based
[24] = target: T2, Amine oxidase [flavin-containing] B; assay: Reversible inhibition of human recombinant MAO-B expressed in supersomes using kynuramine as substrate at 10 nM co-incubated with enzyme and measured over 6 hrs by spectrophotometric method; conditions: 0.01 µM
[25] = target: Cholinesterase (Equus caballus) (UniProt P81908); assay: Inhibition of horse serum BChE at 10 uM by Ellman's spectrophotometric assay; assay type: cell-free
[26] = Cytotoxicity against human SH-SY5Y cells assessed as reduction in cell viability incubated for 4 hrs by CellTiter-Glo luminescence assay; assay type: toxicity, cell-based
Cholinesterase = Cholinesterase (Equus caballus, UniProt P81908)
Description: Inhibition of horse serum BChE by Ellman's spectrophotometric assay

[27] = Cytotoxicity against human HepG2 cells assessed as reduction in cell viability incubated for 4 hrs by CellTiter-Glo luminescence assay; assay type: toxicity, cell-based

T1 sequence (P22303 whole entry): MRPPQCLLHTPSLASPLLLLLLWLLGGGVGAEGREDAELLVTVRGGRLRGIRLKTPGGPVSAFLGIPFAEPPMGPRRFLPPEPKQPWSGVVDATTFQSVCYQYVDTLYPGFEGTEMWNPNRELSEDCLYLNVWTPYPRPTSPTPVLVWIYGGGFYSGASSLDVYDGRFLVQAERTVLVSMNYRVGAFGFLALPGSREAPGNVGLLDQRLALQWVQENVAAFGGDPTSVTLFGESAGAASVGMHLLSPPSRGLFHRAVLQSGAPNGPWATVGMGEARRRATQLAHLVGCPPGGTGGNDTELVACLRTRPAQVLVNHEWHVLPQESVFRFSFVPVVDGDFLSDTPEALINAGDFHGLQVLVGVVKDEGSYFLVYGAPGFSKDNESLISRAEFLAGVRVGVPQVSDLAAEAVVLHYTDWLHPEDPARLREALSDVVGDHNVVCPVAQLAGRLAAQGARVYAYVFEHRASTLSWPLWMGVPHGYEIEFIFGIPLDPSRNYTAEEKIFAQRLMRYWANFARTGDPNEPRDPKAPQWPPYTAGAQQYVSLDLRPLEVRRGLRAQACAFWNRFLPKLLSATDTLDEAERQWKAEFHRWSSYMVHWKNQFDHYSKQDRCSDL
Sequence of Cytochrome P450 3A4 (P08684 whole entry): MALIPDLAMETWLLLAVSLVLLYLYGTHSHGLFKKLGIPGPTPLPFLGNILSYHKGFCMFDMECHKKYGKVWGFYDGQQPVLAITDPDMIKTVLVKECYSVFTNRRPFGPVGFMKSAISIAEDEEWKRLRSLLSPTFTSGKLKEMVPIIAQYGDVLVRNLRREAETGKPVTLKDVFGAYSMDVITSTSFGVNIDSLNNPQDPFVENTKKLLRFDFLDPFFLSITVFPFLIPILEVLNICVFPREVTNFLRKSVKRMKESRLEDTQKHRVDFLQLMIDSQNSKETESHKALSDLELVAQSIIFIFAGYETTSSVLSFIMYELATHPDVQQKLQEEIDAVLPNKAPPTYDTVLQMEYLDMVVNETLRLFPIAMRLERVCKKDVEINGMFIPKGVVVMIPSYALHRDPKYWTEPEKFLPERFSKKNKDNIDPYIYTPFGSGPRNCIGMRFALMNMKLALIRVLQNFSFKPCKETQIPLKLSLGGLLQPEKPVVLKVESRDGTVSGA
Sequence of Cholinesterase (Equus caballus) (P81908 whole entry): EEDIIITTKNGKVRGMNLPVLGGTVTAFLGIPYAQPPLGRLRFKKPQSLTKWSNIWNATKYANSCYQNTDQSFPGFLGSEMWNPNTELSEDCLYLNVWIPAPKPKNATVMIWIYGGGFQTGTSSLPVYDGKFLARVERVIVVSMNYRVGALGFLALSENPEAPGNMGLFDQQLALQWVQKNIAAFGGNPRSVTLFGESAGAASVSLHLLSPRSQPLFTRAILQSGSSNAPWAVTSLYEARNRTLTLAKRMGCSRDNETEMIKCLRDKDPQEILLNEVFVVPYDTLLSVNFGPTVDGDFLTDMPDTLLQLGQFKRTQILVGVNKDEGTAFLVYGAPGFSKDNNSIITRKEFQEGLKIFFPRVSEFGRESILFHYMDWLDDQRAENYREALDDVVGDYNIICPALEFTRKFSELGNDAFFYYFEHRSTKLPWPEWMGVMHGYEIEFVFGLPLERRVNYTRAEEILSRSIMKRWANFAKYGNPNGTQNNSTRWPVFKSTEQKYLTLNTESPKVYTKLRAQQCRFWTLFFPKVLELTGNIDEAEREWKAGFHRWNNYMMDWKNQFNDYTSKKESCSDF
Sequence of Albumin (P02768 whole entry): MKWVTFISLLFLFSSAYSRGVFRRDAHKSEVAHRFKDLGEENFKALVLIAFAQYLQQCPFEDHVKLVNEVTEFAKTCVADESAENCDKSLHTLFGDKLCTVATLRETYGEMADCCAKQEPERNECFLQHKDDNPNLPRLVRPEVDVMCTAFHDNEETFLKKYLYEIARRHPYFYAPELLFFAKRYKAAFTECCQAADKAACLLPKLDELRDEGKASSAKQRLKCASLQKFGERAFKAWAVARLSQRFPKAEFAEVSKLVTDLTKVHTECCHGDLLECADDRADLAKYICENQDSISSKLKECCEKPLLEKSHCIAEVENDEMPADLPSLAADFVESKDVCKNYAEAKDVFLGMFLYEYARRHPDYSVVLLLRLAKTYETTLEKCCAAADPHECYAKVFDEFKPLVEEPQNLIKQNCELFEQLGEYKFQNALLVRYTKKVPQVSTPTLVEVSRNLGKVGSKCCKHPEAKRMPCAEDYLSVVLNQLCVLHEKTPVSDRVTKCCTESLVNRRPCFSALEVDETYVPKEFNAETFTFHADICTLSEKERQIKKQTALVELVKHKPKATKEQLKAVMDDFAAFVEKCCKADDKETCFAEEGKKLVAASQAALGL
Sequence of Cholinesterase (P81908 whole entry): as the sequence (P81908 whole entry) above

Compound | logD at 24 h, 1 µM [1] | IC50 (Acetylcholinesterase [2]) [µM] | Activity (HepG2 [3]) | Activity (SH-SY5Y [4]) | solubility kinetic at 2 h [5] [µM] | microsomal CLint at 0.5 µM [6] [µL/min/mg] | CHI [7] | half-life at 0.5 µM [8] [min] | Papp [9] [×10⁻⁶ cm/s] | IC50 [11] [µM] | Selectivity Index (Homo sapiens) | IC50 (Cytochrome P450 3A4) [µM] | inhibition at 10 µM (MAO-A) [%] | inhibition (INH) [14] | Kd (Albumin) [µM] | Papp B→A at 1 h, 10 µM [18] [×10⁻⁶ cm/s] | microsomal CLint at 0.5 µM [19] [µL/min/mg] | Papp A→B at 1 h, 10 µM [20] [×10⁻⁶ cm/s] | half-life at 0.5 µM [22] [min] | efflux ratio [23] | also measured
Cc1c(C)c2ccc(OCC3CCCN(CCCO)C3)cc2oc1=O (racemic) | 1.15 | 1.1 | Non-Toxic | Non-Toxic | > 500 | 15.1 | 48.8 | 92.4 | 7.2 | – | – | – | – | – | – | – | – | – | – | – | –
CN(CCCC(F)F)Cc1ccc(COc2ccc3c(CO)cc(=O)oc3c2)cc1 | 2.48 | 0.55 | – | – | 201 (≈ 83.9 µg/mL) | 55.6 | 76.4 | 25 | > 14 | 0.0082 | > 1250 | 10 | 34 | Active | 11.3 | 16 | 39.8 | 25 | 34.9 | 0.6 | Activity (SH-SY5Y [10]): Active; Activity (SH-SY5Y [12]): Active; Activity (SH-SY5Y [13]): Non-Toxic; Ki (Acetylcholinesterase [15]): 2 µM; Activity (HepG2 [16]): Non-Toxic; Activity (SH-SY5Y [17]): Active; Ki [21]: 0.013 µM; inhibition (INH) [24]: Active; inhibition [25]: 34%
Cc1c(C)c2ccc(OCC3CCN(CCCO)CC3)cc2oc1=O | 0.86 | – | Non-Toxic | Non-Toxic | > 500 | 29.5 | 47.3 | 47.2 | 6 | – | – | > 10 | 50 | – | 31.7 | 22 | < 11.5 | 19 | > 120 | 1.2 | –
Cc1c(C)c2ccc(OCC3CCN(CCCC(F)F)CC3)cc2oc1=O | 2.34 | 1.2 | – | – | 448 (≈ 170 µg/mL) | 116 | 73.4 | 11.9 | 10.8 | 0.53 | – | 0.8 | 40 | – | – | 16 | 14.1 | 17 | 98.9 | 1 | inhibition [25]: 8%
CN(Cc1ccc(COc2ccc3c(CO)cc(=O)oc3c2)cc1)Cc1cccc(F)c1 | 4.29 | 0.33 | – | – | 2.4 (≈ 1.04 µg/mL) | 37.7 | > 100 | 36.9 | – | 0.01 | > 1000 | 3.5 | 47 | Active | – | – | – | – | – | – | IC50 at 4 h [26]: 40 µM; IC50 (Cholinesterase): 1.1 µM; IC50 at 4 h [27]: 40 µM
C[C@H](NCc1ccc(OCc2cccc(F)c2)cc1)C(N)=O [SAFINAMIDE] | – | – | – | – | – | – | – | – | – | – | – | – | – | – | – | – | – | – | – | – | inhibition (INH) [24]: Active

From ChEMBL document CHEMBL5046285, “Probing Fluorinated Motifs onto Dual AChE-MAO B Inhibitors: Rational Design, Synthesis, Biological Evaluation, and Early-ADME Studies” (J Med Chem, 2022)
